According to PubChem BioAssay (NCI):
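Cells were grown in 96-well plates and exposed to each compound for 48 hours at five concentrations; endpoints were interpolated linearly between bracketing concentrations, or set to the highest concentration if not reached. TGI marks complete inhibition of growth.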

What was measured:
Experiment in all cases: growth of human tumour cells (NCI), 48 h
786-0 renal = test system: 786-0 renal
A498 renal = test system: A498 renal
A549 NSCLC = test system: A549 NSCLC
ACHN renal = test system: ACHN renal
CAKI-1 renal = test system: CAKI-1 renal
CCRF-CEM leukemia = test system: CCRF-CEM leukemia
DLD-1 colon = test system: DLD-1 colon
EKVX NSCLC = test system: EKVX NSCLC
HCC-2998 colon = test system: HCC-2998 colon
HL-60(TB) leukemia = test system: HL-60(TB) leukemia
HOP-62 NSCLC = test system: HOP-62 NSCLC
HOP-92 NSCLC = test system: HOP-92 NSCLC
HT29 colon = test system: HT29 colon
IGROV1 ovarian = test system: IGROV1 ovarian
K-562 leukemia = test system: K-562 leukemia
KM12 colon = test system: KM12 colon
KM20L2 colon = test system: KM20L2 colon
LXFL 529 NSCLC = test system: LXFL 529 NSCLC
M14 melanoma = test system: M14 melanoma
MALME-3M melanoma = test system: MALME-3M melanoma
MOLT-4 leukemia = test system: MOLT-4 leukemia
NCI-H226 lung = test system: NCI-H226 lung
NCI-H23 lung = test system: NCI-H23 lung
NCI-H460 lung = test system: NCI-H460 lung
NCI-H522 lung = test system: NCI-H522 lung
OVCAR-3 ovarian = test system: OVCAR-3 ovarian
OVCAR-4 ovarian = test system: OVCAR-4 ovarian
OVCAR-5 ovarian = test system: OVCAR-5 ovarian
OVCAR-8 ovarian = test system: OVCAR-8 ovarian
RPMI-8226 leukemia = test system: RPMI-8226 leukemia
SF-268 CNS = test system: SF-268 CNS
SF-295 CNS = test system: SF-295 CNS
SK-MEL-2 melanoma = test system: SK-MEL-2 melanoma
SK-MEL-28 melanoma = test system: SK-MEL-28 melanoma
SK-MEL-5 melanoma = test system: SK-MEL-5 melanoma
SK-OV-3 ovarian = test system: SK-OV-3 ovarian
SN12C renal = test system: SN12C renal
SNB-19 CNS = test system: SNB-19 CNS
SNB-75 CNS = test system: SNB-75 CNS
SNB-78 CNS = test system: SNB-78 CNS
SR leukemia = test system: SR leukemia
SW-620 colon = test system: SW-620 colon
TK-10 renal = test system: TK-10 renal
U251 CNS = test system: U251 CNS
UACC-257 melanoma = test system: UACC-257 melanoma
UO-31 renal = test system: UO-31 renal
BT-549 breast = test system: BT-549 breast
COLO 205 colon = test system: COLO 205 colon
DU-145 prostate = test system: DU-145 prostate
HCT-116 colon = test system: HCT-116 colon
HCT-15 colon = test system: HCT-15 colon
HS 578T breast = test system: HS 578T breast
LOX IMVI melanoma = test system: LOX IMVI melanoma
MCF7 breast = test system: MCF7 breast
MDA-MB-231 breast = test system: MDA-MB-231 breast
MDA-MB-435 = test system: MDA-MB-435
MDA-N = test system: MDA-N
NCI/ADR-RES ovarian = test system: NCI/ADR-RES ovarian
PC-3 prostate = test system: PC-3 prostate
RXF 393 renal = test system: RXF 393 renal
SF-539 CNS = test system: SF-539 CNS
T-47D breast = test system: T-47D breast
UACC-62 melanoma = test system: UACC-62 melanoma

COc1cccc([C@@]2(O)c3c(ccc(O)c3OC)[C@H]2OC)c1OC
TGI (786-0 renal): 30.3 µM | TGI (A498 renal): > 100 µM | TGI (A549 NSCLC): > 100 µM | TGI (ACHN renal): > 100 µM | TGI (CAKI-1 renal): 78.4 µM | TGI (CCRF-CEM leukemia): > 100 µM | TGI (DLD-1 colon): > 100 µM | TGI (EKVX NSCLC): > 100 µM | TGI (HCC-2998 colon): > 100 µM | TGI (HL-60(TB) leukemia): 57.3 µM | TGI (HOP-62 NSCLC): > 100 µM | TGI (HOP-92 NSCLC): > 100 µM | TGI (HT29 colon): > 100 µM | TGI (IGROV1 ovarian): > 100 µM | TGI (K-562 leukemia): > 100 µM | TGI (KM12 colon): > 100 µM | TGI (KM20L2 colon): > 100 µM | TGI (LXFL 529 NSCLC): 62.1 µM | TGI (M14 melanoma): > 100 µM | TGI (MALME-3M melanoma): > 100 µM | TGI (MOLT-4 leukemia): > 100 µM | TGI (NCI-H226 lung): > 100 µM | TGI (NCI-H23 lung): > 100 µM | TGI (NCI-H460 lung): > 100 µM | TGI (NCI-H522 lung): 52.2 µM | TGI (OVCAR-3 ovarian): > 100 µM | TGI (OVCAR-4 ovarian): > 100 µM | TGI (OVCAR-5 ovarian): > 100 µM | TGI (OVCAR-8 ovarian): > 100 µM | TGI (RPMI-8226 leukemia): > 100 µM | TGI (SF-268 CNS): > 100 µM | TGI (SF-295 CNS): > 100 µM | TGI (SK-MEL-2 melanoma): > 100 µM | TGI (SK-MEL-28 melanoma): > 100 µM | TGI (SK-MEL-5 melanoma): > 100 µM | TGI (SK-OV-3 ovarian): > 100 µM | TGI (SN12C renal): > 100 µM | TGI (SNB-19 CNS): > 100 µM | TGI (SNB-75 CNS): > 100 µM | TGI (SNB-78 CNS): > 100 µM | TGI (SR leukemia): > 100 µM | TGI (SW-620 colon): > 100 µM | TGI (TK-10 renal): 93.6 µM | TGI (U251 CNS): > 100 µM | TGI (UACC-257 melanoma): > 100 µM | TGI (UO-31 renal): > 100 µM

Cn1ccnc1Sc1ccc(/C=N/NC(=O)c2ccccc2[N+](=O)[O-])cc1[N+](=O)[O-]
TGI (786-0 renal): > 100 µM | TGI (A498 renal): > 100 µM | TGI (A549 NSCLC): > 100 µM | TGI (ACHN renal): > 100 µM | TGI (BT-549 breast): > 100 µM | TGI (CAKI-1 renal): > 100 µM | TGI (CCRF-CEM leukemia): > 100 µM | TGI (COLO 205 colon): > 100 µM | TGI (DU-145 prostate): > 100 µM | TGI (EKVX NSCLC): > 100 µM | TGI (HCC-2998 colon): 95.6 µM | TGI (HCT-116 colon): > 100 µM | TGI (HCT-15 colon): > 100 µM | TGI (HL-60(TB) leukemia): > 100 µM | TGI (HOP-62 NSCLC): > 100 µM | TGI (HOP-92 NSCLC): > 100 µM | TGI (HS 578T breast): > 100 µM | TGI (HT29 colon): > 100 µM | TGI (IGROV1 ovarian): > 100 µM | TGI (K-562 leukemia): > 100 µM | TGI (KM12 colon): > 100 µM | TGI (LOX IMVI melanoma): > 100 µM | TGI (M14 melanoma): > 100 µM | TGI (MALME-3M melanoma): > 100 µM | TGI (MCF7 breast): > 100 µM | TGI (MDA-MB-231 breast): 97.6 µM | TGI (MDA-MB-435): > 100 µM | TGI (MDA-N): > 100 µM | TGI (MOLT-4 leukemia): > 100 µM | TGI (NCI-H226 lung): > 100 µM | TGI (NCI-H23 lung): > 100 µM | TGI (NCI-H460 lung): > 100 µM | TGI (NCI-H522 lung): > 100 µM | TGI (NCI/ADR-RES ovarian): > 100 µM | TGI (OVCAR-3 ovarian): > 100 µM | TGI (OVCAR-4 ovarian): > 100 µM | TGI (OVCAR-5 ovarian): > 100 µM | TGI (OVCAR-8 ovarian): > 100 µM | TGI (PC-3 prostate): > 100 µM | TGI (RPMI-8226 leukemia): > 100 µM | TGI (RXF 393 renal): > 100 µM | TGI (SF-268 CNS): > 100 µM | TGI (SF-295 CNS): > 100 µM | TGI (SF-539 CNS): > 100 µM | TGI (SK-MEL-2 melanoma): > 100 µM | TGI (SK-MEL-28 melanoma): > 100 µM | TGI (SK-MEL-5 melanoma): > 100 µM | TGI (SK-OV-3 ovarian): > 100 µM | TGI (SN12C renal): > 100 µM | TGI (SNB-19 CNS): > 100 µM | TGI (SNB-75 CNS): > 100 µM | TGI (SR leukemia): > 100 µM | TGI (SW-620 colon): > 100 µM | TGI (T-47D breast): > 100 µM | TGI (TK-10 renal): > 100 µM | TGI (U251 CNS): > 100 µM | TGI (UACC-257 melanoma): > 100 µM | TGI (UACC-62 melanoma): > 100 µM | TGI (UO-31 renal): > 100 µM

CC(C)C(Br)CC/C(CBr)=C(\Cl)CCl (centres undefined)
TGI (786-0 renal): 3.49 µM | TGI (A498 renal): 35 µM | TGI (A549 NSCLC): 33.3 µM | TGI (ACHN renal): 28.2 µM | TGI (BT-549 breast): 3.27 µM | TGI (CAKI-1 renal): 9.89 µM | TGI (CCRF-CEM leukemia): 0.995 µM | TGI (COLO 205 colon): 8.53 µM | TGI (DU-145 prostate): 25.2 µM | TGI (EKVX NSCLC): 31.9 µM | TGI (HCC-2998 colon): 26.3 µM | TGI (HCT-116 colon): 5.11 µM | TGI (HCT-15 colon): 4.82 µM | TGI (HL-60(TB) leukemia): 3.86 µM | TGI (HOP-62 NSCLC): 30.3 µM | TGI (HOP-92 NSCLC): 6.84 µM | TGI (HS 578T breast): 15.4 µM | TGI (HT29 colon): 4.09 µM | TGI (IGROV1 ovarian): 3.64 µM | TGI (K-562 leukemia): 3.03 µM | TGI (KM12 colon): 17.9 µM | TGI (LOX IMVI melanoma): 1.08 µM | TGI (M14 melanoma): 3.82 µM | TGI (MALME-3M melanoma): 15.2 µM | TGI (MCF7 breast): 19.3 µM | TGI (MDA-MB-231 breast): 7.71 µM | TGI (MDA-MB-435): 5.16 µM | TGI (MDA-N): 3.81 µM | TGI (MOLT-4 leukemia): 2.36 µM | TGI (NCI-H226 lung): 6.97 µM | TGI (NCI-H23 lung): 12.3 µM | TGI (NCI-H460 lung): 30.6 µM | TGI (NCI-H522 lung): 2.02 µM | TGI (NCI/ADR-RES ovarian): 16.2 µM | TGI (OVCAR-3 ovarian): 8.21 µM | TGI (OVCAR-4 ovarian): 6.48 µM | TGI (OVCAR-5 ovarian): 23.3 µM | TGI (OVCAR-8 ovarian): 9.82 µM | TGI (PC-3 prostate): 16.3 µM | TGI (RPMI-8226 leukemia): 4.49 µM | TGI (RXF 393 renal): 3.66 µM | TGI (SF-268 CNS): 27.9 µM | TGI (SF-295 CNS): 28.7 µM | TGI (SF-539 CNS): 11.4 µM | TGI (SK-MEL-2 melanoma): 4.35 µM | TGI (SK-MEL-28 melanoma): 10.1 µM | TGI (SK-MEL-5 melanoma): 3.8 µM | TGI (SK-OV-3 ovarian): 11.3 µM | TGI (SN12C renal): 8.5 µM | TGI (SNB-19 CNS): 31.1 µM | TGI (SNB-75 CNS): 13.4 µM | TGI (SR leukemia): 3.71 µM | TGI (SW-620 colon): 3.94 µM | TGI (T-47D breast): 3.43 µM | TGI (TK-10 renal): 20.1 µM | TGI (U251 CNS): 17.5 µM | TGI (UACC-257 melanoma): 9.52 µM | TGI (UACC-62 melanoma): 7.71 µM | TGI (UO-31 renal): 15.8 µM
